# In patent US11208412B2 (DAEGU-GYEONGBUK MEDICAL INNOVATION FOUNDATION, priority 2017, dated 2021):
# Assays:
# Assay in all cases: Kinase selectivity, DiscoverX scanMAX Kinase assay panel (% control)
# Assay type in all cases: binding
# [1] = biological target: T1, kinases of the scanMAX Kinase assay panel (Homo sapiens, UniProt P78368); conditions: CSNK1G2; 1 uM
# T1 construct: purchased DiscoverX Co. (contract measurement) scanMAX Kinase assay panel
# How it was run: (§1)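 Compounds were tested at 1 uM (in DMSO) against each panel kinase. % control was calculated as (compound − positive control)/(negative control − positive control)×100, where the positive control gives 0% and DMSO gives 100%. Activity toward a kinase was called at % control <35%.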
# [2] = biological target: T2, kinases of the scanMAX Kinase assay panel (Homo sapiens, UniProt Q06187); conditions: BTK; 1 uM
# T2 construct: purchased DiscoverX Co. (contract measurement) scanMAX Kinase assay panel
# T2 sequence (Q06187 whole entry): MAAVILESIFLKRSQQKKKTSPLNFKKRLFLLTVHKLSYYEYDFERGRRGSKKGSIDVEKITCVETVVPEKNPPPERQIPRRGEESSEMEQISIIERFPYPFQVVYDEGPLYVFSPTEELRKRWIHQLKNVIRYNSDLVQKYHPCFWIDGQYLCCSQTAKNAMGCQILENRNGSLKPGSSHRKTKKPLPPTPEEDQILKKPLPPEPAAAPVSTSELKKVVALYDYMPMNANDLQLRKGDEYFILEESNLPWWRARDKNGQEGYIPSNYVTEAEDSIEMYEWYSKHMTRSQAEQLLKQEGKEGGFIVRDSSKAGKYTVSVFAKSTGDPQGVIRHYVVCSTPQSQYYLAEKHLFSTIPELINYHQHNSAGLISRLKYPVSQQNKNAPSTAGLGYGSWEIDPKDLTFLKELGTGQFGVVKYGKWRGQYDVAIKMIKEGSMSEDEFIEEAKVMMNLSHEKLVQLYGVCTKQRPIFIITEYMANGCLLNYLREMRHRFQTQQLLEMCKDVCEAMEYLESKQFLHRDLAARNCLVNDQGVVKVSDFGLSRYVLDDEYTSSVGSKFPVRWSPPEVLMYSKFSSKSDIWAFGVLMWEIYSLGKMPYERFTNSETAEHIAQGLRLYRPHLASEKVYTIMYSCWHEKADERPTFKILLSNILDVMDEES
# How it was run: as §1
# [3] = biological target: T3, kinases of the scanMAX Kinase assay panel (Homo sapiens, UniProt Q8IYT8); conditions: kinase ULK2; 1 uM in DMSO
# T3 construct: purchased DiscoverX Co. (contract measurement) scanMAX Kinase assay panel
# T3 sequence (Q8IYT8 1-1036): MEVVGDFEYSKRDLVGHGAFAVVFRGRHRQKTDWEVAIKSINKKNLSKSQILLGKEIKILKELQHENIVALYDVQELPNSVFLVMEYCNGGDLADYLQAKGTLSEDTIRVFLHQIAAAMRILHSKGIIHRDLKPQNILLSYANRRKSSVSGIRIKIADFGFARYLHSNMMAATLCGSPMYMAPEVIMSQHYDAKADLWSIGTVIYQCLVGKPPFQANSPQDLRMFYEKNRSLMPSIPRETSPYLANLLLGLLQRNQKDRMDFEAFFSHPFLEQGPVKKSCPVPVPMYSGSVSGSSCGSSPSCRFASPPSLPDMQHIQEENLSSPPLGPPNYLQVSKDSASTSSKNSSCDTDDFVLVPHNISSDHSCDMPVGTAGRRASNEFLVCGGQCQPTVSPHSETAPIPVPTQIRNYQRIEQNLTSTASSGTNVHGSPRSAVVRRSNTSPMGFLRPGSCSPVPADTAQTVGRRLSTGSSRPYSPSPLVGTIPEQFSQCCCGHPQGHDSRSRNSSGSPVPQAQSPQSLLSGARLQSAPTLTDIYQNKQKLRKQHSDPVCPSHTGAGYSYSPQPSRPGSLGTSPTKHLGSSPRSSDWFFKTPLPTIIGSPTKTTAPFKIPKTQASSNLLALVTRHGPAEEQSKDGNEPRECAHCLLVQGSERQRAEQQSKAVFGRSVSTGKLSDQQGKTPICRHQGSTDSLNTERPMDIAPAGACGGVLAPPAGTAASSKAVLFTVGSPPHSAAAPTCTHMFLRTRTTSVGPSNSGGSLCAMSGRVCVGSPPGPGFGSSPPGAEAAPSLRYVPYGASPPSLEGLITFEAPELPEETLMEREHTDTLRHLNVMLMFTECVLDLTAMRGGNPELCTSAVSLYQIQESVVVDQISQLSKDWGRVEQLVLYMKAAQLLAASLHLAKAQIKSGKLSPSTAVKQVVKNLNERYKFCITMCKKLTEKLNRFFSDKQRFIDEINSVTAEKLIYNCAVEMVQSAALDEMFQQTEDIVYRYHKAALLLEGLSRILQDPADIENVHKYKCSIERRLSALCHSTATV
# How it was run: as §1
# [4] = biological target: T4, kinases of the scanMAX Kinase assay panel (Homo sapiens, UniProt P06239); conditions: LCK; 1 uM
# T4 construct: purchased DiscoverX Co. (contract measurement) scanMAX Kinase assay panel
# T4 sequence (P06239 whole entry): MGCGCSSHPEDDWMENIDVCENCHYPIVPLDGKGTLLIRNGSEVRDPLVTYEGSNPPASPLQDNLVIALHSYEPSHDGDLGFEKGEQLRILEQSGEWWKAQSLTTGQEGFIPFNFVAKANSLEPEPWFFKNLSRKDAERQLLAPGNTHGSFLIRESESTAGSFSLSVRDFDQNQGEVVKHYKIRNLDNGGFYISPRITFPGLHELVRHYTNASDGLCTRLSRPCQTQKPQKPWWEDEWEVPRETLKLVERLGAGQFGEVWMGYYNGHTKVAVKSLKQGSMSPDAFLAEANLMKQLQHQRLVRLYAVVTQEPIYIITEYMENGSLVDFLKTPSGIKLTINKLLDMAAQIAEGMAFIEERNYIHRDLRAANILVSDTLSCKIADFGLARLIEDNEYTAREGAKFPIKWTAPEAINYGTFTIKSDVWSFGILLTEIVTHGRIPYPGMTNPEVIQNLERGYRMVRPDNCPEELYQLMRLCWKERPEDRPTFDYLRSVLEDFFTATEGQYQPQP
# How it was run: as §1
# [5] = biological target: T5, kinases of the scanMAX Kinase assay panel (Homo sapiens, UniProt Q14680); conditions: MELK; 1 uM
# T5 construct: purchased DiscoverX Co. (contract measurement) scanMAX Kinase assay panel
# T5 sequence (Q14680 whole entry): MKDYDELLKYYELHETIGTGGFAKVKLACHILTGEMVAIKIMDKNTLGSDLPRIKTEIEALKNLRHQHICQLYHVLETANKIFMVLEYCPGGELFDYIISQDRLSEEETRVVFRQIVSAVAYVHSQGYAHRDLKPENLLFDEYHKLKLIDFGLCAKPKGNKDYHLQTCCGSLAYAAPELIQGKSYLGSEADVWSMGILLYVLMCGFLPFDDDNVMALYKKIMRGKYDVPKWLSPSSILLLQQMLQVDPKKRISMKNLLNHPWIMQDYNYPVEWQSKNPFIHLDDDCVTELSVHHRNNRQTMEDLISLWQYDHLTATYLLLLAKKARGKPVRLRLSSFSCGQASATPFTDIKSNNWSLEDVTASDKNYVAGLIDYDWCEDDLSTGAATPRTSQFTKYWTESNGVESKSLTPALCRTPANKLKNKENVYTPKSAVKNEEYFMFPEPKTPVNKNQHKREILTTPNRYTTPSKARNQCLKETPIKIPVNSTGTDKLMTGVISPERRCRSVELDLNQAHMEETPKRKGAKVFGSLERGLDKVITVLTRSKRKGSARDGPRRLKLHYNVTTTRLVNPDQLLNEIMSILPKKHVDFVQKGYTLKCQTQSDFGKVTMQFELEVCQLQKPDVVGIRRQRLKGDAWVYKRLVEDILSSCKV
# How it was run: as §1
# [6] = biological target: T6, kinases of the scanMAX Kinase assay panel (Homo sapiens, UniProt P00519, F317I); conditions: 1 uM
# T6 construct: purchased DiscoverX Co. (contract measurement) scanMAX Kinase assay panel
# T6 sequence (P00519 whole entry F317I): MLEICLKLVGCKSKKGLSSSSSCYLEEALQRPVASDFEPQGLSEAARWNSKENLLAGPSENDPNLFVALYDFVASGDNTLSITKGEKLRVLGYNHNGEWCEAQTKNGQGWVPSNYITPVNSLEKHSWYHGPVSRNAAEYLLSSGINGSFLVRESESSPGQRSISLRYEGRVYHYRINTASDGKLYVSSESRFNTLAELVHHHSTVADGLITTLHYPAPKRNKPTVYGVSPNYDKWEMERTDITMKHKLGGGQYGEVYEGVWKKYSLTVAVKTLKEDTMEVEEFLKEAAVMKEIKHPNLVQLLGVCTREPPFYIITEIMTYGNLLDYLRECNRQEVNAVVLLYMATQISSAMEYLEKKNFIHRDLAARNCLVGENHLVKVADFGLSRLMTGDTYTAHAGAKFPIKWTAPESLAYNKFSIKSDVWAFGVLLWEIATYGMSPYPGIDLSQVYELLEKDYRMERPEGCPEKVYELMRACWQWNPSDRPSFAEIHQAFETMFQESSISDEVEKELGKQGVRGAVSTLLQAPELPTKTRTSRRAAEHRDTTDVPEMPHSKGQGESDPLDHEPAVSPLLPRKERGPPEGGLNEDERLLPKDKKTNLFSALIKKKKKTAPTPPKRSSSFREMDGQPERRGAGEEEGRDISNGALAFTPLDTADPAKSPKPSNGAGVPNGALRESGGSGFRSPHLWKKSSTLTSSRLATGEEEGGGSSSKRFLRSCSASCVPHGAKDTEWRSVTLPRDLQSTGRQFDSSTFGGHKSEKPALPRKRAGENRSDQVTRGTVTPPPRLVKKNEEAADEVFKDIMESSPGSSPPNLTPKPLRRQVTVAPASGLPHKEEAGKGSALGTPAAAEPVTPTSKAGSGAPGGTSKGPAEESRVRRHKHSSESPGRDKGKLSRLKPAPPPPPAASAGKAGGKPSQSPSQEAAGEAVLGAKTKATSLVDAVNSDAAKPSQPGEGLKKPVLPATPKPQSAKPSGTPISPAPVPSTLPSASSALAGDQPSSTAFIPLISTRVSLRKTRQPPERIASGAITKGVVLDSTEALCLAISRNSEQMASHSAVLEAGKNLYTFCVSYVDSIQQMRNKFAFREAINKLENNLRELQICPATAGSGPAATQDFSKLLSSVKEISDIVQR
# How it was run: as §1
# [7] = biological target: T7, kinases of the scanMAX Kinase assay panel (Homo sapiens, UniProt Q9Y6E0); conditions: MST3; 1 uM
# T7 construct: purchased DiscoverX Co. (contract measurement) scanMAX Kinase assay panel
# T7 sequence (Q9Y6E0 whole entry): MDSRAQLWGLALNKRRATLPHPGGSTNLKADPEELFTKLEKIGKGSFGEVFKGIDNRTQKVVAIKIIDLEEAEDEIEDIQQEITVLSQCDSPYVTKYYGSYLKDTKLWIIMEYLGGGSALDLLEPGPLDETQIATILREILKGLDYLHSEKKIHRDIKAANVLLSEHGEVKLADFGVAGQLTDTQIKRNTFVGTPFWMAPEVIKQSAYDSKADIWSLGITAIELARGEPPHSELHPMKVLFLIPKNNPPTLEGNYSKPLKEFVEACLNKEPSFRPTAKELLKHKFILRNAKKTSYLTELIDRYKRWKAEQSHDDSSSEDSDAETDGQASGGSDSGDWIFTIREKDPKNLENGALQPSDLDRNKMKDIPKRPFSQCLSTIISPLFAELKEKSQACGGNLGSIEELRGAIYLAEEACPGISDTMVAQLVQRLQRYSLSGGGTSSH
# How it was run: as §1
# [8] = biological target: T8, kinases of the scanMAX Kinase assay panel (Homo sapiens, UniProt P29323); conditions: EPHB2; 1 uM
# T8 construct: purchased DiscoverX Co. (contract measurement) scanMAX Kinase assay panel
# T8 sequence (P29323 19-1055): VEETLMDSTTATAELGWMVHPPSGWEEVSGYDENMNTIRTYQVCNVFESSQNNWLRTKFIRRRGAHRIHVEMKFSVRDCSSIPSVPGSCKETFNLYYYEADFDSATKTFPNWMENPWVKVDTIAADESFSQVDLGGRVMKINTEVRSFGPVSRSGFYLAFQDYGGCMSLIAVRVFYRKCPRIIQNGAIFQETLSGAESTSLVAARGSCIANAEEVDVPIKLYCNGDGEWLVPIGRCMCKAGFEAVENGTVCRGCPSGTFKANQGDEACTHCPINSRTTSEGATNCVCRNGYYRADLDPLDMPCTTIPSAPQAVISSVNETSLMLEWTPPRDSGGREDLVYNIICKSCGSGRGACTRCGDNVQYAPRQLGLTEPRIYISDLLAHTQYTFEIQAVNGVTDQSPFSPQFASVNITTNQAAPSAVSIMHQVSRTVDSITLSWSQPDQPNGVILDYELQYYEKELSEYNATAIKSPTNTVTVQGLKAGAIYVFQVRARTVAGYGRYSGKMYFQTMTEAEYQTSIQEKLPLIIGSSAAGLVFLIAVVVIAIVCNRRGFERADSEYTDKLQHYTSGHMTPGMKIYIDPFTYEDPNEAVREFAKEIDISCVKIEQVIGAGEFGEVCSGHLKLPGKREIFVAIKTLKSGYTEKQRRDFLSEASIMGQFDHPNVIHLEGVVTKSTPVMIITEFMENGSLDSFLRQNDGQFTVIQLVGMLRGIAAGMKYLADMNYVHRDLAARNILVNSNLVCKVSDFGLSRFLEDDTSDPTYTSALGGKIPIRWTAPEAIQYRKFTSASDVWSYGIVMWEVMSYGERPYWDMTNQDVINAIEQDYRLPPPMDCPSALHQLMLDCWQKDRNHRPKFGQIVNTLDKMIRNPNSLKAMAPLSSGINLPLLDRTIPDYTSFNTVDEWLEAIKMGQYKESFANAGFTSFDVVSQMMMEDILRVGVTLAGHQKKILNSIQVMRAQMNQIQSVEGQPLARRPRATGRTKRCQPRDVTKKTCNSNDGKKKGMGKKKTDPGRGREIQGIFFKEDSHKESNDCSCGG
# How it was run: as §1
# [9] = biological target: T9, kinases of the scanMAX Kinase assay panel (Homo sapiens, UniProt Q9P1W9); conditions: PIM2; 1 uM
# T9 construct: purchased DiscoverX Co. (contract measurement) scanMAX Kinase assay panel
# T9 sequence (Q9P1W9 whole entry): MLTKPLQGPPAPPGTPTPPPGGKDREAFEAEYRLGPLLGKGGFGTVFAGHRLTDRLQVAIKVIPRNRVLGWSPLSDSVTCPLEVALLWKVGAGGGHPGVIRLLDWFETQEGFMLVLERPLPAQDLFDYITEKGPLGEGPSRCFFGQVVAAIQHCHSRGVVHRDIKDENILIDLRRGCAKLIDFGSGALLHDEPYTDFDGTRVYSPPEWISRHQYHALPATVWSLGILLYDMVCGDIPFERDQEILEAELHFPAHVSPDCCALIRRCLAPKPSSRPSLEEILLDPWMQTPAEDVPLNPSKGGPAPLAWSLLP
# How it was run: as §1
# T1 sequence (P78368 whole entry): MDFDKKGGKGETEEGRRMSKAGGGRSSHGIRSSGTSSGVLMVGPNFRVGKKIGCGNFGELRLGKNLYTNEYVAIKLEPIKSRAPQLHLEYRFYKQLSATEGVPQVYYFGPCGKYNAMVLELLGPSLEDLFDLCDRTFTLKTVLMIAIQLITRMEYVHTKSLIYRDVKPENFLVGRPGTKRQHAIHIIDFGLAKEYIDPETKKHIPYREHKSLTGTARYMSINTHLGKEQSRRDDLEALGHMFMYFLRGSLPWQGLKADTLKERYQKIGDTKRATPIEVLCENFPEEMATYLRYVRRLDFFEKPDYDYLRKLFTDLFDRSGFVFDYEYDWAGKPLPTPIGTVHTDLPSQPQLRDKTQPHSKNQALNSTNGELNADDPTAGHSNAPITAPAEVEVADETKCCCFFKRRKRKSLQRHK
Structure (SMILES),remaining binding at 1 µM [1],remaining binding at 1 µM [2],remaining binding at 1 µM [3],remaining binding at 1 µM [4],remaining binding at 1 µM [5],remaining binding at 1 µM ([6]; ABL1(F317I)-nonphosphorylated),remaining binding at 1 µM ([6]; ABL1(F317I)-phosphorylated),remaining binding at 1 µM [7],remaining binding at 1 µM [8],remaining binding at 1 µM [9]
"CCNc1nc(Nc2ccc(C(=O)N3CCC(N4CCOCC4)CC3)cc2OC)nc2[nH]cc(C(F)(F)F)c12 [Example 104, (4-((4-(ethylamino)-5-(trifluoromethyl)-7H-pyrrolo[2,3-d]pyrimidine-2-yl)amino)-3-methoxyphenyl)(4-morpholinopiperidine-1-yl)methanone]",100%,100%,100%,100%,79%,56%,29%,84%,91%,100%
"CC1(Nc2nc(Nc3cnn([C@H]4CCN(C5COC5)C[C@@H]4F)c3Cl)nc3[nH]cc(C#N)c23)CC1 [Example 52, 2-((5-chloro-1-((3S,4S)-3-fluoro-1-(oxetane-3-yl)piperidine-4-yl)-1H-pyrazole-4-yl)amino)((1-methylcyclopropyl)amino)-7H-pyrrolo[2,3-d]pyrimidine-5-carbonitrile]",0.1%,9.1%,15%,19%,6.3%,25%,7.6%,25%,70%,63%
"CNc1nc(Nc2ccc(C(=O)N3CCOCC3)cc2OC)nc2[nH]cc(C#N)c12 [Example 1, 2-((2-methoxy-4-(morpholine-4-carbonyl)phenyl)amino)-4-(methylamino)-7H-pyrrolo[2,3-d]pyrimidine-5-carbonitrile]",58%,72%,75%,100%,78%,99%,54%,86%,99%,78%
